Test results reported in US20040097583A1, “Use of inhibitors of the sodium/hydrogen exchanger for the treatment of thrombotic and inflammatory disorders” (priority 2002, published 2004).
Values joined by “and” are separate entries in the source; they are usually repeats but may differ in a detail not shown here. Equal entries are not always repeated. “Also recorded” adds a separate entry of the source.

Columns and labels:
[1] = test system: human umbilical vein endothelial cells (HUVEC); assay: Measurement of the intracellular pH (pHi) during reperfusion simulation after acidosis, BCECF fluorescence; type: cell-based
Description: (§1) All the examples were carried out with human umbilical vein endothelial cells (HUVEC). These comprise primary cell cultures isolated from the umbilical vein.
(§2) For the following examples, the cells were cultivated either on gelatinized glass plates (measurement of the intracellular proton concentration) or on cell culture plates (12-well culture plates, Falcon, N.J., USA; measurement of vWF release) after the first passage.
To measure the intracellular proton concentration (pHi), the HUVECs were loaded with the pH-sensitive fluorescent dye, BCECF-AM (2′,7′-bis(carboxyethyl)-5(6)-carboxyfluorescein). A Deltascan spectrofluorometer (PTI, Hamburg) was employed for the subsequent fluorescence measurement. This measuring system consists essentially of a UV light source, a monochromator, a photon detector and the Felix and Oscar software packages (PTI, Hamburg) for controlling the system via a computer. After alternate excitation with the wavelengths 439.5 nm (pH-independent) and 490 nm (pH-sensitive), the ratio of the measured emissions of the BCECF (ratio) was reported and the pH was found after a calibration. The measuring cell is designed so that the parameters of temperature and carbon dioxide partial pressure in the system are controlled during continuous perfusion. For the reperfusion simulation, the experimental conditions were set at 37° C. and a carbon dioxide partial pressure of 5% or 10% by gassing the system and perfusate.
In the experiment, there was initially preincubation with sodium bicarbonate buffer pHex 6.4 for 60 minutes in order to simulate […] metabolic acidosis. The initiation perfusion was then changed to sodium bicarbonate buffer of pH 7.4 with 10 μM histamine as reperfusion simulation. These control experiments were compared with an experiment in which the NHE inhibitor cariporide was added in a concentration of 10 μM to the reperfusion buffer.

[2] = test system: human umbilical vein endothelial cells (HUVEC); assay: Measurement of vWF release after reperfusion (ELISA of cell supernatant); type: cell-based
Description: as §1, §2
The measurements were carried out in a Heraeus Heracell incubator. This made it possible to […] the umbilical vein endothelial cells under controlled physiological conditions (temperature 37° C., relative humidity 100%, pCO2 constant at 5%), and to ensure rapid change of different cell culture media.
Said cells were initially incubated with acidotic medium (pH 6.4 composed of the ingredients: medium M199 w/Earle's & amino acids, w/L-glutamine, w/o NaHCO3, w/o Hepes+0.084 g NaHCO3/1) or pH standard medium (pH 7.4 composed of the ingredients: medium M199 w/Earle's & amino acids, w/L-glutamine, w/o NaHCO3, w/o Hepes+2.200 g NaHCO3/1), for one, three or 48 hours. Before starting the reperfusion, samples of supernatant were taken to determine the vWF concentration under acidotic conditions (vWFacidosis) and control conditions (vWFco). To simulate reperfusion, the medium was changed to one with a pH of 7.4 (ingredients: medium M199 w/Earle's & amino acids, w/L-glutamine, w/o NaHCO3, w/o Hepes+2.200 g NaHCO3/1+10 μM histamine) to which the NHE inhibitor cariporide was added in a concentration of 10 μM. Change to the same medium without corresponding addition of inhibitor served as control.
The samples taken from the supernatant were used to determine the vWF concentration. This was done by an ELISA method (enzyme-linked immuno sorbent assay) using specific antibodies. The vWF content of standard human plasma (Behring, Marburg) is calculated using an international standard (2nd International Standard 87/718, National Institute for Biological Standards and Control, London).

CC(C)c1ccc(C(=O)N=C(N)N)cc1S(C)(=O)=O [cariporide]
Rate of pH increase, Mean ± SEM ([1]; 10 μM cariporide in reperfusion buffer pH 7.4 with 10 μM histamine, after 60 minutes of acidosis (pHex 6.4), first 30 seconds after reperfusion): 0.27 ± 0.02 Δ pH / min | Rate of pH increase, individual experiments ([1]; 10 μM cariporide in reperfusion buffer pH 7.4 with 10 μM histamine, after 60 minutes of acidosis (pHex 6.4), first 30 seconds after reperfusion, listed as HOE): 0.30 Δ pH / min and 0.24 Δ pH / min (2×) and 0.23 Δ pH / min and 0.34 Δ pH / min | Reduction in the rate of increase in intracellular pH compared with the control (factor) ([1]; extracellular pH changed from 6.4 to 7.4, 10 μM cariporide): 3.6 | Effect on vWF secretion of healthy, non-acidotic control cells (in words) ([2]; control cells incubated with cariporide (10 μM)): no increase or decrease in vWF secretion; also recorded: showed no effect | vWF secretion relative to control cells (vWFco = 100%), control cells incubated with cariporide (vWFco+HOE) ([2]; non-acidotic control cells, 10 μM cariporide, 10-minute reperfusion time with stimulation): 106 ± 3.0% | vWF concentration during reperfusion of preacidotic cells in the presence of cariporide (vWFHOE), relative to control (vWFco = 100%) ([2]; preacidotic cells (pH 6.4), 10 μM cariporide, 10-minute reperfusion time with stimulation, without cariporide 193 ± 8.0%): 139 ± 16% | Reduction of the increased vWF secretion during reperfusion ([2]; preacidotic cells, 10 μM cariporide): ~60%
